“Also recorded” adds a separate entry of the source.
Key:
[1] = system: pure cultures of microorganisms resident on human axillary skin; settings: for Odor released on catabolism: bacteria that catabolized the substrate
Protocol: Pure cultures of the numerically most prominent microorganisms normally resident on human axillary skin (see Table 1) were surveyed for their effects on (i) pH, (ii) Eh, (iii) ability to generate malodor and (iv) ability to generate hydrogen peroxide. Four hour incubation experiments were conducted, in which each of a wide range of carbohydrate and amino acid substrates (see Table 1) were surveyed for malodor production and related changes in pH and Eh thereto.
Each microorganism was recovered from its frozen state at −70° C. and grown at 37° C. in 10 ml of appropriate and respective culture media for a period between 24 and 48 hours (see Table 1). Incubations were carried out to middle and late exponential stages of bacterial growth under the incubation conditions indicated in Table 1. A 1.5 ml inoculum was transferred therefrom to polypropylene bottles containing 150 ml of the initial growth medium. This was then incubated at 37° C. for 24 to 48 hours. Bacteria were harvested by centrifugation (DuPone, Sorvall, Newtown, Conn.) at 10,000 g and 4° C. for 20 min. […] The sediment was then washed with sterile distilled water to remove residual growth medium. This was done by centrifuging the bacterial sediment three times at 1,740 g for 15 min at 4° C.
Each pure culture was pre-incubated at 37° C. at pH 7.0 to exhaust or reduce any stored carbohydrate and other carbon/energy sources acquired during growth in culture.
Both of these electrodes were connected to a second pH meter (pH M26 Radiometer Copenhagen NV, Denmark) and used here as a millivoltmeter. For the Eh measurements, when the Eh electrode was immersed in an incubation mixture, each Eh reading was recorded after allowing several seconds for each reading to stabilize. The Eh value was related to that of the hydrogen electrode by adding to each reading the difference between the E0 value for the Red Rod reference element-mercury and hydrogen electrodes—i.e. 270 my at 25° C.
At each time point, the odor was determined organoleptically by immersing a solid glass rod into each incubation mixture, stirring gently 3 times and then removing and carefully smelling the rod after 5 seconds. The intensity of the odor was assessed on a 0 to 4 numerical scale (0—no odor, 1—mild odor, 2—moderate odor, 3—strong odor, and 4—very strong odor).

[2] = system: C. striatum, Staph. epidermidis or a 1:1 mixture thereof; settings: for Sulfurous odor and Eh: zinc acetate, CIL and either arginine or arginine bicarbonate, no phenylalanine
From the text: The pH of the medium with each of the different zinc salts needed some adjustment, which was done with 1 M HCl or 1 M NaOH depending upon the pH of the stock solutions of each zinc salt employed.

[3] = system: C. striatum, Staph. epidermidis and a mixture of the two; assay: Growth (colony counts on BHI agar) during 72 hour incubation with CIL, phenylalanine, zinc carbonate with or without arginine bicarbonate; type: cell-based
Protocol: The bacterial sediments produced upon centrifugation and decantation of the supernatants were stirred and made into a uniform suspension. C. striatum and Staph. epidermidis were mixed with each of C. striatum and Staph. epidermidis at 25% (v/v).
Zinc carbonate was autoclaved and suspended in sterile distilled water. All other stock solutions were sterilized by microbial filtration (Nylon, Sterile filter, pore size […], Fisher Scientific, Fairlawn, N.J. USA).
Difco BHI agar was poured into petri dish plates under sterile conditions and pre-incubated at 37° C. for 24 hours before use to ensure sterility.
The experimental and negative control samples were prepared as follows:
The final concentrations of the bacteria, C. striatum and Staph. epidermidis were each 8.3% (v/v) and the mixture of C. striatum and Staph. epidermidis were 4.15% (v/v) each.
Serial dilution of each of the samples between 10^0 and 10^10 was made. An aliquot of 100 μl from each 10^0 to 10^10 dilution was inoculated onto BHI agar plates. […] Bacterial growth was regularly checked. This was the initial test before the incubation was started.
Four successive diluted samples were selected and grown to proper densities of bacterial colonies on the agar plates; for example, 10^4 to 10^7 were appropriate dilutions for all samples in the instant experiment. Incubation of all samples (experimental and control) were continued at 37° C. for 24, 48 or 72 hours; 100 μl of each sample were taken and chosen at 4 consequent dilutions and inoculated on BHI agar plates for incubation for 24, 48 and 72 hours, respectively. Plating on BHI agar plates and incubation at 37° C. for 24 to 48 hours were carried out and bacterial growth on the BHI agar plates were checked.
The number of bacterial colonies on each plate was assessed. The plates inoculated with the mixture of C. striatum and Staph. epidermidis (i.e., Samples I and IV in the Table of Media compositions above) were counted and the number of colonies of C. striatum and Staph. epidermidis were determined from the photos of the plates.

C. striatum (ATCC 43751) = assay: Kirby-Bauer disk diffusion susceptibility test; type: cell-based, Corynebacterium striatum; settings: for Intensity of inhibition of the growth of C. striatum (CS): Blood BHI agar plate, 37° C., 24 hours
From the text: (§1) C. striatum and Staph. epidermidis are among the most prevalent bacteria that comprise the human cutaneous microbiota. […] The purpose of this segment was to examine whether formulations arising out of the studies reported in the prior sections that favor the growth and metabolism of Staph. epidermidis as a desirable skin entity that can inhibit the growth of C. striatum, a less desirable entity, and do so when both microorganisms are present initially at the same levels. In this regard, an adaptation of the Kirby-Bauer disk diffusion susceptibility test appeared to be relevant for such determination.
(§2) Here we have grown less than desirable C. striatum and highly desirable Staph. epidermidis, alone and in combination, under a variety of substrate conditions to determine, if the latter micro-organism could be selected over C. striatum and thereby be used as a means of reducing the presence of less desirable odor-producing C. striatum.
(§3) Compositions indicated as possible suppressants of C. striatum and/or enhancers of Staph. epidermidis were based on the prior studies above and for convenience of presentation were categorized as possible active test ingredients and then formulae and mixtures in which they were tested. Accordingly, the total number of compositions tested was eight. Careful attention was paid to sterility throughout in the preparation and handling of the compounds and compositions utilized herein.
(§4) Each of these formulae were prepared at 4 different concentrations: original as in (b), and 1.5, 2.5 and 7.5 times the original concentration. Again, all formulae were prepared under aseptic conditions.
To make compositions 1.5 times the original concentration listed above, formulae 7.5 times the original concentrations were diluted a factor of 5 with sterile distilled water. To make compositions 2.5 times the original concentration listed above, formulae 7.5 times the original concentrations were diluted three-fold with sterile distilled water. To summarize: a total of 3 ingredients, 2 formulae and 2 mixtures were tested. A total of 20 disks were prepared for tests of susceptibility to each bacterial sample and these are outlined in Table 5.2 below:
A TB syringe with a 25-27 G sterile needle was used to help break up the remains of any pellets. […] Plating Procedures • Five bacterial samples of C. striatum and Staph. epidermidis were plated on Blood BHI agar and CHROMagar plates, respectively. • 100 μl of each bacterial sample was inoculated on Blood BHI agar plates by using sterile glass bars and a turning table to facilitate each bacterial sample being spread evenly on each of the agar plates. • Each spread bacterial suspension was allowed to dry on inoculated plates for five minutes. • Paper disks were immersed, respectively, with the above 3 ingredients, 2 formulae and 2 mixtures; absorptions were saturated. • Four disks were placed on each plate with sterile forceps. • Incubated plates within 15 minutes after applying the disks to ensure test was under standardized conditions, where diffusion of the ingredients and formulae and bacterial growth commence at approximately the same time. Plates were incubated at 37° C. for 24 hours. Interpretation of Results
Each strain was determined as resistant, intermediate, or susceptible to the ingredients, formulae and mixtures tested. After 24 hours of incubation at 37° C., the diameter of the zone of growth inhibition around each disk was measured to the nearest whole mm. Plates were carefully examined for well-developed colonies within the zone of inhibition.

[4] = system: mixture of C. striatum and Staph. epidermidis in the ratio of 1 to 1; assay: Zinc carbonate / arginine bicarbonate on odor and pH, CIL and phenylalanine medium; type: cell-based; settings: for pH after incubation: arginine bicarbonate with zinc carbonate
[5] = system: Staph. epidermidis (ATCC 12228); assay: Kirby-Bauer disk diffusion susceptibility test; type: cell-based, Staphylococcus epidermidis
From the text: as §1, §2, §3, §4
To make compositions 1.5 times the original concentration listed above, formulae 7.5 times the original concentrations were diluted a factor of 5 with sterile distilled water. […]
Each strain was determined as resistant, intermediate, or susceptible to the ingredients, formulae and mixtures tested. After 24 hours of incubation at 37° C., the diameter of the zone of growth inhibition around each disk was measured to the nearest whole mm. […]

[6] = 3% and 5%, Blood BHI agar plates
[7] = concentration 5%, paper disk 12.7 mm
[8] = zinc compound alone, levels tested (1%, 3%, 5%)

N[C@@H](CSSC[C@H](N)C(=O)O)C(=O)O [cystine]
Odor released on catabolism ([1]; 6.0 mM): sulfurous odor

N[C@@H](Cc1c[nH]c2ccccc12)C(=O)O [tryptophan]
Indole/skatole odor level ([1]; 6.0 mM, M. luteus and P. acne, 0 to 4 scale): 2

CC(=O)[O-].CC(=O)[O-].[Zn+2] [Zinc acetate]
Sulfurous odor and Eh ([2]; pH 4.0 to 8.0, 4 hours): No sulfurous odor nor corresponding decrease in the Eh

N=C(N)NCCC[C@H](N)C(=O)O.O=C(O)O [Arginine bicarbonate, arginine bicarbonate]
Decrease of number of colonies ([3]; 12 mM zinc carbonate, CIL, phenylalanine, with versus without 12 mM arginine bicarbonate, 37° C., 72 hours): without arginine bicarbonate decreased sooner
Colonies found in the mixture ([3]; media with arginine bicarbonate, 48 and 72 hours): Only colonies of Staph. epidermidis were discovered
Staph. epidermidis share of colonies in the mixture ([3]; media with arginine bicarbonate, 24 hours, 65% at 0 hours): 90%
Sensitivity of C. striatum (in words) (C. striatum (ATCC 43751); at either 1% or 5% levels): neither C. striatum nor Staph. epidermidis was susceptible
pH maintained ([4]; 12.0 mM arginine bicarbonate, CIL and phenylalanine, 37° C., 4 hours): about 8.0
pH after incubation ([4]; medium originally at pH 6.0): 6.8
pH after incubation ([4]; medium originally at pH 7.0): 7.8
pH after incubation ([4]; medium originally at pH 8.0): 8.0
Sulfurous odor and Eh ([2]; pH 4.0 to 8.0, 4 hours): No sulfurous odor nor corresponding decrease in the Eh
Sensitivity of Staph. epidermidis (in words) ([5]; at either 1% or 5%): neither C. striatum nor Staph. epidermidis was susceptible

basic zinc carbonate (ZnCO3. 3 Zn(OH)2)
Sensitivity of C. striatum (in words) (C. striatum (ATCC 43751); 1%, Blood BHI agar): not sensitive
Sensitivity of C. striatum (in words) (C. striatum (ATCC 43751); [6]): viability loss; also recorded: sensitive
Partial or complete inhibition, C. striatum (C. striatum (ATCC 43751); concentration 1%): (p)
Intensity of inhibition of the growth of C. striatum (CS) (C. striatum (ATCC 43751); concentration 1%): ±
Diameter of the zone of growth inhibition, C. striatum (C. striatum (ATCC 43751); concentration 3%): 14 mm
Partial or complete inhibition, C. striatum (C. striatum (ATCC 43751); concentration 3%): (p)
Intensity of inhibition of the growth of C. striatum (CS) (C. striatum (ATCC 43751); concentration 3%): + ((+) the diameter of inhibition <15 mm)
Partial or complete inhibition, C. striatum (C. striatum (ATCC 43751); concentration 5%): (p)
Intensity of inhibition of the growth of C. striatum (CS) (C. striatum (ATCC 43751); concentration 5%): ++ ((++) the diameter of inhibition 15-20 mm)
Diameter of the zone of growth inhibition, C. striatum (C. striatum (ATCC 43751); [7]): 15 mm
Sulfurous odor ([4]; medium with zinc carbonate, CIL and phenylalanine, pH 4.0 to 8.0, 4 hours): no sulfurous odor was observed
Sensitivity of Staph. epidermidis (in words) [5, 8]: not sensitive

Zinc arginate
Foot odor smell ([2]; 12 mM zinc arginate, CIL and phenylalanine, pH 4.0 or 5.0, 4 hours): mild
Eh ([2]; 12 mM zinc arginate, CIL and phenylalanine, pH 4.0 to 8.0, 4 hours): decreased significantly
Sulfurous odor ([2]; 12 mM zinc arginate, CIL and phenylalanine, pH 4.0 to 8.0, 4 hours, versus control groups): blocked completely
Foot odor generation ([2]; 12 mM zinc arginate, CIL and phenylalanine, pH 6.0 or above): disappeared
Favorable odor ([2]; C. striatum or the mixture, zinc arginate, CIL and phenylalanine, pH 5.0 to 8.0, 4 hours): evident
Pleasant flower odor ([2]; Staph. epidermidis alone, zinc arginate, CIL and phenylalanine, 4 hours): not detected

CC(C)C[C@H](N)C(=O)O [leucine]
Foot-web odor score ([1]; 6.0 mM, Staph. saprophyticus, Staph. hominis, Staph. haemolyticus and C. minutissium, 0 to 4 scale): 2

N[C@@H](Cc1ccccc1)C(=O)O [phenylalanine]
Pleasant odor ([4]; medium with zinc carbonate, CIL and phenylalanine, between pH 5.0 and 8.0, 4 hours): pleasant odor developed
Pleasant odor ([4]; phenylalanine added to zinc acetate, CIL, arginine or arginine bicarbonate media, pH 6.5 and 7.0, 4 hour): pleasant odor appeared
Odor produced on catabolism (in words) ([1]; 6.0 mM, C. striatum, Staph. saprophyticus or Staph. hominis): pleasant odor

N[C@@H](CS)C(=O)O [cysteine]
Odor released on catabolism ([1]; 6.0 mM): sulfurous odor

OC[C@H]1O[C@@](CO)(O[C@H]2O[C@H](CO)[C@@H](O)[C@H](O)[C@H]2O)[C@@H](O)[C@@H]1O [sucrose]
pH response, lowest pH reached ([1]; 28 mM carbohydrate, start pH 7.0, 37° C., 4 hours, across the bacteria tested): 4.2

CSCC[C@H](N)C(=O)O [methionine]
Methyl mercaptan-like odor level ([1]; 6.0 mM, Staph. epidermidis, Staph. saprophyticus, C. jeikeium, C. minutissium, Brevibacterium epidermidis, P. avidum, P. acne, M. furfur): mild to moderate

NCC(=O)[O-].NCC(=O)[O-].[Zn+2] [Zinc glycinate, zinc glycinate]
Sensitivity of C. striatum (in words) (C. striatum (ATCC 43751); 1%, Blood BHI agar): not sensitive
Sensitivity of C. striatum (in words) (C. striatum (ATCC 43751); [6]): viability loss; also recorded: sensitive
Diameter of the zone of growth inhibition, C. striatum (C. striatum (ATCC 43751); concentration 3%): 14 mm
Partial or complete inhibition, C. striatum (C. striatum (ATCC 43751); concentration 3%): (p)
Intensity of inhibition of the growth of C. striatum (CS) (C. striatum (ATCC 43751); concentration 3%): + ((+) the diameter of inhibition <15 mm)
Partial or complete inhibition, C. striatum (C. striatum (ATCC 43751); concentration 5%): (p)
Intensity of inhibition of the growth of C. striatum (CS) (C. striatum (ATCC 43751); concentration 5%): ++ ((++) the diameter of inhibition 15-20 mm)
Diameter of the zone of growth inhibition, C. striatum (C. striatum (ATCC 43751); [7]): 17 mm
Sensitivity of Staph. epidermidis (in words) [5, 8]: not sensitive
